Legend:
[1] = test system: normal specimens (BM or CB); test: Membrane integrity by YoPro-1 uptake, normal specimens; assay type: cell-based, human; conditions: 20 μM TDZD-8 for 15 min
Method: C. […] Cells were then washed with PBS and stained to assess membrane permeability using annexin V-Allophycocyanin (APC) and the vital dyes: Yo-[…] (0.1 uM), Hoescht 33342 (2.5 ug/ml), and Propidium Iodide (0.5 ug/ml) (Molecular Probes).

CDK1/cyclin B = CDK1/cyclin B (Homo sapiens, UniProt P06493); test: Kinase assay; assay type: biochemical
Method: (§1) Kinase Assays: Single point and titration assays are performed using protocols (or essentially using protocols) know in the art for kinase activity profiling against a battery of kinase targets, including, for example, those specifically delineated herein. Such assays include, for example, those available from commercial sources, contract research laboratories, and the like.

SRC = SRC (Homo sapiens, UniProt P12931); test: Kinase assay; assay type: biochemical
Sequence of SRC (P12931 whole entry, species assumed): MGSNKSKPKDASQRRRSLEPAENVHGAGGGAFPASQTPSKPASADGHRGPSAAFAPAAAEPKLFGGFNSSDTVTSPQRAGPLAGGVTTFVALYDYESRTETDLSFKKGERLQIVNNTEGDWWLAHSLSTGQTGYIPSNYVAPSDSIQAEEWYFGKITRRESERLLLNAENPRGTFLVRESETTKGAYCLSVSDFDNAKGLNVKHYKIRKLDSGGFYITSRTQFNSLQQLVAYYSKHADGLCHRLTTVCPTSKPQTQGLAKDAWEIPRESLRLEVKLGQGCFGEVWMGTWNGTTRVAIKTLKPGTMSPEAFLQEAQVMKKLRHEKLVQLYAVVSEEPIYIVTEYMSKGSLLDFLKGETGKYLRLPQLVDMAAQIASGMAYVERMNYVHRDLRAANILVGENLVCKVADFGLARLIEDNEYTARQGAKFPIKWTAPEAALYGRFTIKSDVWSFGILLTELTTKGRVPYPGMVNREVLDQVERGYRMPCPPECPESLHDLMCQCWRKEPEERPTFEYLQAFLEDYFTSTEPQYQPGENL
Method: as §1

AKT1 (PKB alpha) = AKT1 (PKB alpha) (Homo sapiens, UniProt P31749); test: Kinase assay; assay type: biochemical
Sequence of AKT1 (PKB alpha) (P31749 whole entry): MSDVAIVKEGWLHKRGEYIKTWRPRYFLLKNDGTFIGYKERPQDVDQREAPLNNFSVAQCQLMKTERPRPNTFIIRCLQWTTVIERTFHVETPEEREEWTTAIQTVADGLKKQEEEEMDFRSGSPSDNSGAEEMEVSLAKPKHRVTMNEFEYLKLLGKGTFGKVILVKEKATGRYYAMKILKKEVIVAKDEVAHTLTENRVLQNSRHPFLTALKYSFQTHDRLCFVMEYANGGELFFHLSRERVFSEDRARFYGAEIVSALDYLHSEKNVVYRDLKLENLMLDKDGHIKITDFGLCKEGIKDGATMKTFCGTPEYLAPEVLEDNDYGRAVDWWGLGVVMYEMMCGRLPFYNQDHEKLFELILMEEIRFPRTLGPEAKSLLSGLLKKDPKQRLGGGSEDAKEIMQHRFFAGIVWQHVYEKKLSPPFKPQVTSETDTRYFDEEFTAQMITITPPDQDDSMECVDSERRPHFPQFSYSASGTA
Method: as §1

DYRK3 = DYRK3 (Homo sapiens, UniProt O43781); test: Kinase assay; assay type: biochemical
Method: as §1

PRKCN (PKD3) = PRKCN (PKD3) (Homo sapiens, UniProt O94806); test: Kinase assay; assay type: biochemical
Method: as §1

BTK = BTK (Homo sapiens, UniProt Q06187); test: Kinase assay; assay type: biochemical
Method: as §1

FGFR1 = FGFR1 (Homo sapiens, UniProt P11362); test: Kinase assay; assay type: biochemical
Method: as §1

INSR = INSR (Homo sapiens, UniProt P06213); test: Kinase assay; assay type: biochemical
Method: as §1

CSNK2A1 (CK2 alpha 1) = CSNK2A1 (CK2 alpha 1) (Homo sapiens, UniProt P68400); test: Kinase assay; assay type: biochemical
Method: as §1

PIM1 = PIM1 (Homo sapiens, UniProt P11309); test: Kinase assay; assay type: biochemical
Method: as §1

CSNK1G2 (CK1 gamma 2) = CSNK1G2 (CK1 gamma 2) (Homo sapiens, UniProt P78368); test: Kinase assay; assay type: biochemical
Method: as §1

PRKCA (PKC alpha) = PRKCA (PKC alpha) (Homo sapiens, UniProt P17252); test: Kinase assay; assay type: biochemical
Method: as §1

STK6 (Aurora A) = STK6 (Aurora A) (Homo sapiens, UniProt O14965); test: Kinase assay; assay type: biochemical
Method: as §1

NTRK1 (TRKA) = NTRK1 (TRKA) (Homo sapiens, UniProt P04629); test: Kinase assay; assay type: biochemical
Method: as §1

PRKCH (PKC eta) = PRKCH (PKC eta) (Homo sapiens, UniProt P24723); test: Kinase assay; assay type: biochemical
Method: as §1

PDGFRB (PDGFR beta) = PDGFRB (PDGFR beta) (Homo sapiens, UniProt P09619); test: Kinase assay; assay type: biochemical
Sequence of PDGFRB (PDGFR beta) (P09619 33-1106): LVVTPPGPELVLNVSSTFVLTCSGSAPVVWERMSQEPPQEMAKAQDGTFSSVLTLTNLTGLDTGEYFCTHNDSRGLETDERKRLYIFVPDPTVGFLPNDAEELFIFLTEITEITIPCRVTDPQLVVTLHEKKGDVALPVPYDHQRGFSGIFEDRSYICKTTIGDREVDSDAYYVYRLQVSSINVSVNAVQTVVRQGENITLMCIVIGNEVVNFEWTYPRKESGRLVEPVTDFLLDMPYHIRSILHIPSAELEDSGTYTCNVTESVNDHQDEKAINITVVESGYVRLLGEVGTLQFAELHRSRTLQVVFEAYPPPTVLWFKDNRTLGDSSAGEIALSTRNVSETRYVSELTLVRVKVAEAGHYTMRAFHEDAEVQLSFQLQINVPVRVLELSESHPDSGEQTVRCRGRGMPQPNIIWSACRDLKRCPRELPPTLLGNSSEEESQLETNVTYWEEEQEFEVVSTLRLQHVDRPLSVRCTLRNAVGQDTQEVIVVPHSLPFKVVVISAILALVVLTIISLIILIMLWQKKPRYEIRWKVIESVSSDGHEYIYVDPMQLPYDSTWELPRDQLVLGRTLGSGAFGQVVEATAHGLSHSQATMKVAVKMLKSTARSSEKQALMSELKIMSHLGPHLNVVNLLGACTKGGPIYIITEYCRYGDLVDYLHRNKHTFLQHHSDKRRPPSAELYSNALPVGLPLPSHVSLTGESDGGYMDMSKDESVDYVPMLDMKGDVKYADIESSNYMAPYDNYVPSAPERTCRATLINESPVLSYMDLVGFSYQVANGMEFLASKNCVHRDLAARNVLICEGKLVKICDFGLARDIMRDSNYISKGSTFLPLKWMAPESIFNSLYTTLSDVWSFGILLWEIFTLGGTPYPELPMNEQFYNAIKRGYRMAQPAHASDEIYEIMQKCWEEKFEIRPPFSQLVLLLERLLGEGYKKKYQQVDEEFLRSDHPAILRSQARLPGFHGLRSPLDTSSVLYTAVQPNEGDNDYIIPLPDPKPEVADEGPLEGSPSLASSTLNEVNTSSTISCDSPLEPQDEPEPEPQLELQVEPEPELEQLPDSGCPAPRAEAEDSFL
Method: as §1

EPHA2 = EPHA2 (Homo sapiens, UniProt P29317); test: Kinase assay; assay type: biochemical
Method: as §1

IRAK4 = IRAK4 (Homo sapiens, UniProt Q9NWZ3); test: Kinase assay; assay type: biochemical
Method: as §1

MAPK14 (p38 alpha) = MAPK14 (p38 alpha) (Homo sapiens, UniProt Q16539); test: Kinase assay; assay type: biochemical
Method: as §1

ABL1 = ABL1 (Homo sapiens, UniProt P00519); test: Kinase assay; assay type: biochemical
Method: as §1

PRKD1 (PKC mu) = PRKD1 (PKC mu) (Homo sapiens, UniProt Q15139); test: Kinase assay; assay type: biochemical
Method: as §1

EGFR (ErbB1) = EGFR (ErbB1) (Homo sapiens, UniProt P00533); test: Kinase assay; assay type: biochemical
Method: as §1

JAK3 = JAK3 (Homo sapiens, UniProt P52333); test: Kinase assay; assay type: biochemical
Method: as §1

PRKACA (PKA) = PRKACA (PKA) (Homo sapiens, UniProt P17612); test: Kinase assay; assay type: biochemical
Method: as §1

ERBB2 (HER2) = ERBB2 (HER2) (Homo sapiens, UniProt P04626); test: Kinase assay; assay type: biochemical
Method: as §1

IGF1R = IGF1R (Homo sapiens, UniProt P08069); test: Kinase assay; assay type: biochemical
Method: as §1

PKC = conditions: reported; cited from earlier work
[2] = assay type: cell-based; conditions: human, CD34+CD38− cells gated from healthy (normal) specimens
All other tumor lines = test: NCI-60 screen, other lines; assay type: cell-based; conditions: Homo sapiens; NCI-60, non-hematologic lines; read-out: concentration up to which no growth inhibition was shown
Source text: (§2) In contrast the cell viability for normal specimens was 79.5% (n=13).

primary CLL specimens = test: Viability of primary CLL specimens, Annexin V/7-AAD; assay type: cell-based; conditions: Homo sapiens, 24 h; read-out: mean viability relative to untreated controls
CD34+CD10− ALL cells = test: Viability of CD34+CD10− cells from ALL specimens; assay type: cell-based; conditions: Homo sapiens, 24 h
[3] = test system: cell lines derived from hematologic malignancies; test: NCI-60 screen, average; assay type: cell-based; conditions: Homo sapiens; average over hematologic lines of NCI-60; read-out: average concentration to achieve 50% growth inhibition (GI50)
Source text: as §2

PRKCI (PKC iota) = PRKCI (PKC iota) (Homo sapiens, UniProt P41743); test: Kinase assay (single point and titration); assay type: biochemical
Sequence of PRKCI (PKC iota) (P41743 whole entry): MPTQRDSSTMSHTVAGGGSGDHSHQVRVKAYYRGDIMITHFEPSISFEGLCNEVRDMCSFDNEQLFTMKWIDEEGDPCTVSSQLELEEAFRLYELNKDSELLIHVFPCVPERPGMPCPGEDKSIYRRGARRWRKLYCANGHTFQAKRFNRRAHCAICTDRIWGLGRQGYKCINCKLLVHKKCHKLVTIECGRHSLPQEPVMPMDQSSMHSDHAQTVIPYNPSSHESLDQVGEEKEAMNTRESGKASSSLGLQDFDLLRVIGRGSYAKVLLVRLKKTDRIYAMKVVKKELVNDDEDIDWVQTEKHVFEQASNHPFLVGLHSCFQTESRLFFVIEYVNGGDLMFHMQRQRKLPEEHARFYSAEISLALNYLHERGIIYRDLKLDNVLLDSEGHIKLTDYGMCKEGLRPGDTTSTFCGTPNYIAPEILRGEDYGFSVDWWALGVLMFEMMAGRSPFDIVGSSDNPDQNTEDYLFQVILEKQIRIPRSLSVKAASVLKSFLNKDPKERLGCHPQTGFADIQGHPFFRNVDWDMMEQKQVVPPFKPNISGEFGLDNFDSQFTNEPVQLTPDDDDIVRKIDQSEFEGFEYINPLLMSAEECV
Method: as §1

PRKCB1 (PKC beta I) = PRKCB1 (PKC beta I) (Homo sapiens, UniProt P05771); test: Kinase assay (single point and titration); assay type: biochemical
Sequence of PRKCB1 (PKC beta I) (P05771 whole entry): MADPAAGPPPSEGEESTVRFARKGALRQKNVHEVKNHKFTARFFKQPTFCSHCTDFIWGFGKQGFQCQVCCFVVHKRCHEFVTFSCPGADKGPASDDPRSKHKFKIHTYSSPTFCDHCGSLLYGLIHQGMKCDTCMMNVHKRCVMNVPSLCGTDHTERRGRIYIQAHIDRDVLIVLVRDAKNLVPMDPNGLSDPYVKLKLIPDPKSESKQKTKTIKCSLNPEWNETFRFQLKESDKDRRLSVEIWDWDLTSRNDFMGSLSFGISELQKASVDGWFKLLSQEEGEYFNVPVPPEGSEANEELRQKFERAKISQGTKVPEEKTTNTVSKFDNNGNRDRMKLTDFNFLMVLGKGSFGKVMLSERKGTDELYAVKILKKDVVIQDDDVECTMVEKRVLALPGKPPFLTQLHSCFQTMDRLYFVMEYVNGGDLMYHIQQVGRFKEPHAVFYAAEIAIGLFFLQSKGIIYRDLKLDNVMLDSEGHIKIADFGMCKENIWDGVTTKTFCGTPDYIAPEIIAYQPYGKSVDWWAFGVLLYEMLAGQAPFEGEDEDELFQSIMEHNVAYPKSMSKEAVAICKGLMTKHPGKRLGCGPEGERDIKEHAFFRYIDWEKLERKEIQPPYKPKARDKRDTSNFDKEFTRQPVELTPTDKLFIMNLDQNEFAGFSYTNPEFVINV
Method: as §1

FLT3 = FLT3 (Homo sapiens, UniProt P36888); test: Kinase assay (single point and titration); assay type: biochemical
Sequence of FLT3 (P36888 27-993): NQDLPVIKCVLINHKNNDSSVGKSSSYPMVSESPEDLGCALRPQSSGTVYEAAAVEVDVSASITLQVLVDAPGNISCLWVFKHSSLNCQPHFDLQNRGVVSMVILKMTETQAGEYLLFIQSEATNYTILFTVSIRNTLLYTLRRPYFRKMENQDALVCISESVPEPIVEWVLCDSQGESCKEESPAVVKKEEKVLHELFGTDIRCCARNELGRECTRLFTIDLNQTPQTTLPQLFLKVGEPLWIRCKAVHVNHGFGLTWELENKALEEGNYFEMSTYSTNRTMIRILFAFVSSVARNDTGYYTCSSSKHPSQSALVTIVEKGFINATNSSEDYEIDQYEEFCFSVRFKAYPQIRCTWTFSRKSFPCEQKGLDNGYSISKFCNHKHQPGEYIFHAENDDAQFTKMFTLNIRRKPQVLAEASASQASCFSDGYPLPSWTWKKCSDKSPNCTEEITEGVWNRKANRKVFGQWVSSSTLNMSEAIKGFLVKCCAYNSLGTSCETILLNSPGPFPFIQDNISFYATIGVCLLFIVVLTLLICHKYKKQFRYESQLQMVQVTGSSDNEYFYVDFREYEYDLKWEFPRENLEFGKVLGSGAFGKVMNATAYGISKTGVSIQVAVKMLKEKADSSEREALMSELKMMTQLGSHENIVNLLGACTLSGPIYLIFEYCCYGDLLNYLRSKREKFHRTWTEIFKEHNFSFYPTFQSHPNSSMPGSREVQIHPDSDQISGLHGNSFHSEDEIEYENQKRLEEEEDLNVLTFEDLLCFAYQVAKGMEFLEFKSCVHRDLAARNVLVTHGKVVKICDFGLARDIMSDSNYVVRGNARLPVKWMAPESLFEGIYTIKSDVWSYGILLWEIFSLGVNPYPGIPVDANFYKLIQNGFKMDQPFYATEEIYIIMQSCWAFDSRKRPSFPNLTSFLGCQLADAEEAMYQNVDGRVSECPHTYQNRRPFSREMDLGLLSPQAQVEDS
Method: as §1

PRKCD (PKC delta) = PRKCD (PKC delta) (Homo sapiens, UniProt Q05655); test: Kinase assay (single point and titration); assay type: biochemical
Sequence of PRKCD (PKC delta) (Q05655 whole entry): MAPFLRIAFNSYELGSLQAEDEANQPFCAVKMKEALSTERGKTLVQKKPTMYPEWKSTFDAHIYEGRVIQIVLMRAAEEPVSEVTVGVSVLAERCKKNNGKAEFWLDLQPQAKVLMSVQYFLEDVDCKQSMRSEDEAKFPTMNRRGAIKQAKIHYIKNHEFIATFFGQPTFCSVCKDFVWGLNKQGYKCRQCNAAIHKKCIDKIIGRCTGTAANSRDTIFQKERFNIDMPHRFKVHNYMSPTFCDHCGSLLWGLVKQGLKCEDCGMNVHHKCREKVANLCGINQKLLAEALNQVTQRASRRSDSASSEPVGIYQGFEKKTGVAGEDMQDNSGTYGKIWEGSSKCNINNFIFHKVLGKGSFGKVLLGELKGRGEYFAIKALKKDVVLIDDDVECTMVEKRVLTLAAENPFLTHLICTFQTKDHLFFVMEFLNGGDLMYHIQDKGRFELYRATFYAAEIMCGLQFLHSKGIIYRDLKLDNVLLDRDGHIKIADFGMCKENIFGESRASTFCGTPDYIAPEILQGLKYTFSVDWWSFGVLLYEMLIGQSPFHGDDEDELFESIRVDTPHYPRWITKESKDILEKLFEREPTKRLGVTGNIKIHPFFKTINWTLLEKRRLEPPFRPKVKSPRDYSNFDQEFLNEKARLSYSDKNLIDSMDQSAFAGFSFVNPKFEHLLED
Method: as §1

[4] = titration, read-out: in vitro IC50

## Cn1sc(=O)n(Cc2ccccc2)c1=O [TDZD-8, 4-benzyl-2-methyl-1,2,4-thiadiazolidine-3,5-dione]
[1]
  rapid uptake of YoPro-1: not evident in normal specimens
CDK1/cyclin B
  inhibition at 20 µM: 15%
SRC
  inhibition at 20 µM: 27%
SRC; TDZD-8 20 μM
  % Inhibition mean: little to no inhibition
AKT1 (PKB alpha)
  inhibition at 20 µM: 102%
DYRK3
  inhibition at 20 µM: 85%
PRKCN (PKD3)
  inhibition at 20 µM: 94%
BTK
  inhibition at 20 µM: 72%
FGFR1
  inhibition at 20 µM: 1%
INSR
  inhibition at 20 µM: 9%
CSNK2A1 (CK2 alpha 1)
  inhibition at 20 µM: 27%
PIM1
  inhibition at 20 µM: 95%
CSNK1G2 (CK1 gamma 2)
  inhibition at 20 µM: 22%
PRKCA (PKC alpha)
  inhibition at 20 µM: 102%
STK6 (Aurora A)
  inhibition at 20 µM: 99%
NTRK1 (TRKA)
  inhibition at 20 µM: -9%
PRKCH (PKC eta)
  inhibition at 20 µM: 104%
PDGFRB (PDGFR beta)
  inhibition at 20 µM: -4%
PDGFRB (PDGFR beta); TDZD-8 20 μM
  % Inhibition mean: little to no inhibition
EPHA2
  inhibition at 20 µM: 3%
IRAK4
  inhibition at 20 µM: 8%
MAPK14 (p38 alpha)
  inhibition at 20 µM: 97%
ABL1
  inhibition at 20 µM: 70%
PRKD1 (PKC mu)
  inhibition at 20 µM: 97%
EGFR (ErbB1)
  inhibition at 20 µM: 1%
JAK3
  inhibition at 20 µM: -1%
PRKACA (PKA)
  inhibition at 20 µM: 18%
ERBB2 (HER2)
  inhibition at 20 µM: 12%
IGF1R
  inhibition at 20 µM: -2%
PKC
  IC50: > 100 µM
[2]
  viability at 24 h, 20 μM: 80.2%
All other tumor lines
  IC50: > 100 µM
Primary CLL specimens
  viability at 20 µM: 7.2%
CD34+CD10− ALL cells
  viability at 20 µM: 22.3%
[3]
  GI50: 8.3 µM
PRKCI (PKC iota)
  inhibition at 20 µM: 100%
PRKCI (PKC iota); [4]
  IC50: 5.5 µM
PRKCB1 (PKC beta I)
  inhibition at 20 µM: 98%
PRKCB1 (PKC beta I); [4]
  IC50: 1.4 µM
FLT3
  inhibition at 20 µM: 99%
FLT3; titration curve, FIG. 13C, read-out: in vitro IC50
  IC50: 0.673 µM
PRKCD (PKC delta)
  inhibition at 20 µM: 102%
PRKCD (PKC delta); [4]
  IC50: 1.1 µM
